According to patent US20230043035A1, “AGAROPHYTON CHILENSIS EXTRACT, RICH IN FREE FATTY ACIDS, AS A NUTRACEUTICAL OR NUTRITIONAL SUPPLEMENT, SUITABLE FOR MODULATING PPAR# ACTIVITY” (UNIVERSIDAD ANDRES BELLO, priority 2019, published 2023):

Assays:
[1] = tested on: fabp4 gene; test: mRNA expression of adipocyte differentiation marker fabp4 in 3T3-L1 cells (qPCR); type: cell-based; details: 25 μM, 3T3-L1, day 7, n=3
Experimental: (§1) In order to assess the effect of the claimed extracts on differentiation of fibroblasts into adipocytes, 3T3-L1 cells are cultured at low passage, avoiding cells from reaching confluence. […] Thereafter, the maintenance medium was replaced.

[2] = molecular target: T1, PPARγ (Homo sapiens, UniProt P37231); test: PPARγ activation assay (gal4 PPARγ reporter gene) in PC12 cells; type: cell-based; details: 25 μM, n=10
T1 construct: GAL4 (fusion partner); expressed in transfected cells; host or cells: PC12 cells, transiently transfected with Lipofectamine 2000
T1 sequence (P37231 238-503 limits assumed): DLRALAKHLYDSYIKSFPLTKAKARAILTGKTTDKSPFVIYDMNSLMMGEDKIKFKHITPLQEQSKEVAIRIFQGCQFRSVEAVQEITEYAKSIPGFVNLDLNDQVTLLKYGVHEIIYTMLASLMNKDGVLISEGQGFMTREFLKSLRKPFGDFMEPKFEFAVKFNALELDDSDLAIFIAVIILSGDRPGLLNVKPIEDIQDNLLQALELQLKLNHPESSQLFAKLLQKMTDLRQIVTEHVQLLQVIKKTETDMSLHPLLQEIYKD
Experimental: In the PPARγ activation assay, an assay with the reporter gene gal4 PPARγ is performed, which allow assessing the activation of PPARγ induced by ligand, to which end concentrations of 30 and 60 μg/mL were used. PC12 cells were seeded in a 48-well plate at a density of 100,000 cells/well/250 μL of maintenance medium containing the medium RPMI1640® (Roswell Park Memorial Institute-1640 Medium) supplemented with 10% of horse serum (HS), 5% of fetal bovine serum (FBS) and 1× antibiotic/antimicotic (Ab-Am). Then, the DNA (0.8 μg luciferase plasmid (MH100tkLUC), 0.8 μg PPARγGAL4 plasmid and 0.053 μg β-galactosidase plasmid, (β-Gal)) were mixed in OptiMEM® (Opti-Minimun Essential Medium). This constitutes the DNA mixture. In parallel, lipofectamine 2000 was diluted in OptiMEM®. This constitutes the Lipofectamine® mixture. […] The lysate was collected, centrifuged for 1 minute at 14000 rpm, the β-galactosidase and luciferase activity in the supernatant was measured, and the times of PPARγ activation was calculated relative to the DMSO control (final concentration in the medium of 0.1%). In parallel, the activity of β-galactosidase was assessed (colorimetry). […] The activity results were expressed as times of increase in relation to the activity obtained with control cells (treated only with DMSO). […]

[3] = tested on: 3T3-L1 cells; test: Differentiation of 3T3-L1 cells into adipocytes, Oil Red O accumulation; type: cell-based; details: 25 μM, 3T3-L1, day 10, n=4
Experimental: as §1

[4] = tested on: 3T3-L1 cells; test: MTT viability assay in 3T3-L1 cells of the differentiation assay; type: cell-based; details: 25 μM, 3T3-L1, n=3
Experimental: In order to assess the effect of the claimed extracts on differentiation of fibroblasts into adipocytes, 3T3-L1 cells are cultured at low passage, avoiding cells from reaching confluence. […] Thereafter, the maintenance medium was replaced. […] After removing MTT, DMSO (99.9%) was added to lyse cells and dissolve MTT/MTT formazan. In order to assess absorbance at 570 nm and 620 nm in a spectrophotometer, 100 μl of this solution were moved to a 96-well plate. The difference between absorbances was calculated, and the survival relative to the control (DMSO) was determined.

[5] = tested on: cortical neurons; test: Neuroprotection assay: cortical neurons damaged with oligomycin A, MTT viability; type: cell-based, rat
Description: To assess the neuroprotective capacity of Extract B, a model of neuronal damage caused by chemical ischemia was used, preferably the model of damage caused by oligomycin A. Oligomycin A is a macrolide that blocks oxidative phosphorylation, inhibiting mitochondrial ATP synthase.
In order to assess the neuroprotective capacity, a primary culture of cortical neurons of stage E18 rat embryos was used. To this end, adult female rats were acquired, pregnant at stage 18, from the CINBIOT bioterium of the Faculty of Biological Science, Pontificia Universidad Católica de Chile. […]
On the 9th of culture, the challenge with oligomycin A was carried out. […] Thereafter, neuronal viability was determined, by removing the entire culture medium, it was washed once with PBS and incubated with 0.5 mg/mL of MTT in neurobasal medium without phenol red at 37° C. for 2 hours to establish the mitochondrial activity, wherein MTT (yellow) is transformed into MTT formazan (dark blue), when reduced by live cells. […] Subsequently, 100 μl of this solution were moved to a 96-wel plate to measure absorbance at 570 nm and 620 nm in spectrophotometer. The difference between absorbances (570-620) was calculated, and the survival was estimated relative to the control treated with DMSO and without damage caused by oligomycin A. The presence of MTT formazan is quantified at 570 nm. […]

CC(C)C[C@H](NC(=O)OCC1c2ccccc2-c2ccccc21)C(=O)O [FMOC-Leu]
fabp4 mRNA expression, times relative to control DMSO [1]: 1.7 times
PPARγ transcriptional activity, times higher than negative control [2]: 14.7 times
Oil Red O (neutral lipid) accumulation, times relative to control [3]: 1.1
cell survival (MTT) relative to control (DMSO) [4]: 100%

CC[C@@H]1/C=C/C=C/C[C@H](C)[C@H](O)[C@](C)(O)C(=O)[C@H](C)[C@@H](O)[C@H](C)C(=O)[C@H](C)[C@@H](O)[C@H](C)/C=C/C(=O)O[C@H]2[C@@H](C)[C@@H](CC1)O[C@@]1(CC[C@@H](C)[C@@H](C[C@H](C)O)O1)[C@@H]2C [oligomycin A, Oligomycin A]
neuronal viability after oligomycin A, % of undamaged DMSO control ([5]; oligomycin A 2 μM 30 min, no extract, rat cortical neurons): 22.5%

vitamin E
protection against oligomycin A ([5]; 10 μM alone, data not shown): does not provide protection
